molecular target: Cyclin-dependent kinase 2/G1/S-specific cyclin-E1 (Homo sapiens, UniProt P24941+P24864); experiment: Biological Activity Assay
Procedure: Kinase enzymatic reactions were performed in 384-well microplates using a 12-channel Caliper LabChip instrument as a detection device. […] As substrate and product are separated, two peaks of fluorescence are observed. Change in the relative fluorescence intensity of the substrate and product peaks is the parameter measured, reflecting enzyme activity. In the presence of an inhibitor, the ratio between product and substrate is altered. […] Potential inhibitor compounds (as HCl salts) were tested using 12-point dose response curves in single point at the Km for ATP.

Row | IC50 [µM] | Structure (SMILES)
1 | > 100 | CN1CCN2C(=CC3C=NC(Nc4ccc(N5CCNCC5)cn4)=NC32)C1=O (centres undefined) [US10696682, Compound 5]
2 | > 100 | CC(C)C1CNC(=O)C2=CC3C=NC(Nc4ccc(N5CCN(C)CC5)cn4)=NC3N21 (centres undefined) [US10696682, Compound 7]
3 | > 100 | CC(C)[C@H]1CN(C)C(=O)C2=CC3C=NC(Nc4ccc(N5CCNCC5)cn4)=NC3N21 (some centres undefined) [US10696682, Compound 11]
4 | > 100 | CC(C)C[C@H]1CN(C)C(=O)C2=CC3C=NC(Nc4ccc(N5CCNCC5)cn4)=NC3N21 (some centres undefined) [US10696682, Compound 15]
5 | > 100 | CCC(C)[C@H]1CN(C)C(=O)C2=CC3C=NC(Nc4ccc(N5CCN(C)CC5)cn4)=NC3N21 (some centres undefined) [US10696682, Compound 18]
6 | > 100 | CCC(C)[C@H]1CN(C)C(=O)C2=CC3C=NC(Nc4ccc(N5CCNCC5)cn4)=NC3N21 (some centres undefined) [US10696682, Compound 19]
7 | > 100 | CN1CC2(CCCC2)N2C(=CC3C=NC(Nc4ccc(N5CCNCC5)cn4)=NC32)C1=O (centres undefined) [US10696682, Compound 31]
8 | > 100 | CC(C)CC1CN(C)C(=O)C2=CC3C=NC(Nc4ccc(N5CCNCC5)cn4)=NC3N21 (centres undefined) [US10696682, Compound 47]
9 | > 100 | CN1CCN(c2ccc(NC3=NC4C(C=N3)C=C3C(=O)N[C@H]5CCC[C@@H]5N34)nc2)CC1 (some centres undefined) [US10696682, Compound 48]

Reference: BindingDB's records for patent US10696682 (G1 Therapeutics, 2020)
